Results on three compounds are retold here after PMC12035797, “Peptidomimetics Activating the Proteasome: A New Perspective for Parkinson’s Treatment” (Journal of Medicinal Chemistry, 2025).

Entries after “also recorded” stand apart in the source; their conditions may differ. *1 amine or outer side, *2 acyl side, *3 side chain or, on linkers, in order; H or OH if unused. Where a SMILES comes first, the peptide text is derived from it. [ ]: non-standard residue; d: D form. X2 = N=C(N)NCCC[C@@H](C(=O)[*:2])N(c1ccc([N+](=O)[O-])c2nonc12)[*:1]; Nlys = NCCCCNCC(=O)O

For series [1], the system named is HEK293T cells. The series can be described thus: Fluorescence microscopy of cell penetration of NBD-labeled activators. Format: cell-based, human. Conditions: 10 μM, 3 h. As to the method: In order to verify the permeability of the constructs across cell membranes, we synthesized their analogues with an NBD fluorophore attached at the N-terminus. The excitation wavelength for this fluorophore is 467 nm, and the emission wavelength is 539 nm.
HEK293T cells were incubated in DMEM supplemented with 10% FBS and penicillin/streptomycin (100 units/mL/100 μg/mL), at 37 °C with 5% CO2. Cells were seeded on 24-well plates at a density of 3 × 10^4 cells per well and incubated in 0.5 mL of the complete medium for 48 h. Then, the fresh medium containing the modulators labeled with NBD fluorophore was added to each well at a concentration of 10 μM. Half an hour before the end of the incubation, 20 μL of Hoechst 33342 dye was added to each well, and then the plate was placed back in the incubator. After the 3 h incubation, cells were washed thoroughly with PBS, and a phenol red-free culture medium (FluoroBriteTM DMEM, Gibco/Thermo Fisher Scientific, Waltham, MA, USA) was added. Subsequently, the cells were examined using a Zeiss AXIO Observer D1 microscope (Carl Zeiss AG, Oberkochen, Germany) using an Alexa Fluor 488 filter.

Series [2] relates to endogenous α-synuclein in primary cortical cultures. Kind of series: Endogenous α-synuclein level in primary cortical cultures (Simple Western Jess). Format: cell-based, mouse. The settings on record: 2.5 μM, 7 days; statistical significance only for 1g. On the procedure: The effectiveness of the compounds has also been examined by using proteins as substrates. By means of SDS-PAGE electrophoresis, we checked the extent to which model proteins were digested by the 20S proteasome alone and after its stimulation by 10 μM modulators. […] After incubation with the enzyme in the presence of each modulator, less than 40% of synuclein remained. […] All animal experiments were performed following the protocols evaluated and approved by the Laboratory Animal Centre of the University of Helsinki (Ethics Approval License KEK24-013) and in accordance with the European Community Guidelines (Directive 2010/63/EU). […] The viability and number of neuronal cells were calculated automatically in an Automated Cell Counter (Bio-Rad), plated at a density of 1,000,000 cells per well on 6-well plates and cultured in Neurobasal A Medium (Thermo Fisher Scientific (Gibco), #12349015, Waltham, MA, USA) supplemented with GlutaMAX (Thermo Fisher Scientific (Gibco) #A1286001, Waltham, MA, USA), B-27 Supplement (Thermo Fisher Scientific (Gibco), #17504001, Waltham, MA, USA), and 200 ng/mL Primocin (Invitrogen, ant-pm-1, San Diego, CA, USA). […] Protein concentrations in the cell lysates were determined using a bicinchoninic acid (BCA) assay (Sigma-Aldrich, 3B9643-1L-KC, MO, USA) according to the manufacturer’s instructions. […]

Series [3] is described as follows: PAMPA, blood–brain barrier mimic. Format: in vitro ADME. The settings on record: 500 μM, 37 °C, 22 h. The source says:
In neurodegenerative diseases, proteins prone to aggregation accumulate in the neuronal cells. Therefore, a necessary feature of potential drugs is not only permeability across the cell membrane but also the ability to cross the blood-brain barrier (BBB). To preliminarily investigate this feature, we performed parallel artificial membrane permeation assays (PAMPA) including as positive controls propranolol and Tat47-57, known for their ability to penetrate the blood-brain barrier. Dopamine hydrobromide was included as a negative control. For comparison, we also tested compound 1a, which is devoid of a CPP sequence. […] The PAMPA was performed as previously described.[21] Briefly, a 2% solution of porcine brain lipid membrane (PBL; Avanti Polar Lipids Inc., Alabaster, AL, USA) in anhydrous dodecane was used as a mimic of the blood-brain barrier. Propranolol hydrochloride (Merck, Darmstadt, Germany) and Tat47-57 (synthesized in-house) served as positive controls, while dopamine hydrobromide (Merck, Darmstadt, Germany) was used as a negative control. Stock solutions of the tested compounds and controls were prepared at a concentration of 10 mM in deionized water and then diluted to 500 μM using 0.1 M PBS containing 5% DMSO. The donor-acceptor plate assembly was incubated at 37 °C while being shaken at 250 rpm for 22 h. Absorbance at 290 nm was measured for propranolol using an Infinite […] plate reader (Infinite […] plate reader, Tecan). For the other samples, fluorescence measurements were performed after the compounds were reacted with 0.02% fluorescamine. The rate of passive diffusion was calculated as the linear velocity of permeation (Pe). The data represent an average of three independent biological replicates.

Series [4] deals with hippocampal neurons containing Lewy body-like pS129-αsyn aggregates. The series can be described thus: pS129-α-synuclein aggregates in PFF-treated hippocampal neurons. Format: cell-based, mouse. Conditions: 7 days after PFFs, 0.5 and 2.5 μM. The source says:
Encouraged by the results received, we tested the ability of the modulator-CPP constructs to increase α-synuclein degradation in a cell model using primary mouse neuronal cells. The presence of Lewy-like neurites and Lewy-like bodies containing aggregated α-synuclein with phosphorylated serine 129 (pS129-αsyn) is a characteristic feature of the brains of people with Parkinson’s disease. To mimic these aggregations, we introduced a solution of preformed fibrils (PFFs) to the media of neuronal cells, which led to the induction of α-synuclein phosphorylation and its aggregation in neurons isolated from mouse embryos. PFFs are purified, prion-like fibrils of α-synuclein that are produced by expressing a recombinant monomeric protein in bacteria. Seven days after PFFs are introduced to the cells, large aggregates are visible in the cell soma, often next to the cell nucleus. We added the PFF solution to the hippocampal cells, and after an hour of incubation, we introduced solutions of the activator. After 7 days, we immunostained neuronal cells using a monoclonal antibody against the NeuN protein, which is commonly used in neuronal differentiation studies to assess their functional status. Additionally, we stained the nuclei of all incubated cells with DAPI. […] It is noteworthy that the number of cells in samples with activators was slightly higher (Figure 5), which may indicate neuroprotective properties. […] The main tool for monitoring this process was an antibody against pS129-αsyn. […] The fluorescent microscopy images (Figure 5) show the difference between the amounts of aggregated protein in the control sample and in the samples containing activators at different concentrations.
Cells were isolated from pregnant mouse embryos at E16.0 and plated on precoated with poly-L-lysine wells of 96-well plates (PerkinElmer/Revvity Inc., Waltham, MA, USA) at 25,000 cells/well. The final medium volume was 150 μL/well. Cells were incubated at 37 °C, 5% CO2. […]

Turning to `C[C@@H](O)[C@H](NC(=O)[C@H](Cc1ccccc1)NC(=O)[C@H](Cc1ccc(O)cc1)NC(=O)CN(CCCCN)C(=O)[C@H](CCCNC(=N)N)NC(=O)[C@H](CCCNC(=N)N)NC(=O)[C@H](CCCNC(=N)N)NC(=O)[C@H](CCC(N)=O)NC(=O)[C@H](CCCNC(=N)N)NC(=O)[C@H](CCCNC(=N)N)NC(=O)[C@H](CCCCN)NC(=O)[C@H](CCCCN)NC(=O)[C@H](CCCNC(=N)N)Nc1ccc([N+](=O)[O-])c2nonc12)C(=O)NCC(=O)N[C@@H](CO)C(=O)N[C@@H](CCCCN)C(=O)N[C@@H](CC(=O)O)C(=O)N[C@@H](Cc1c[nH]c2ccccc12)C(=O)N[C@@H](CCCNC(=N)N)C(=O)N[C@@H](CO)C(=O)N[C@@H](Cc1ccc(O)cc1)C(=O)N[C@@H](Cc1ccc(O)cc1)C(=O)N[C@@H](CO)C(=O)O` [1f_NBD] (H-[X2]KKRRQRRR[Nlys]YFTGSKDWRSYYS-OH; C-terminus assumed), in series [1], the “penetration into cells, NBD fluorescence” value is “fluorescence from the attached NBD tag is visible inside HEK293T cells”.

Turning to `C[C@@H](O)[C@H](NC(=O)[C@H](Cc1ccccc1)NC(=O)[C@H](Cc1ccc(O)cc1)NC(=O)CN(CCCCN)C(=O)[C@H](CCCNC(=N)N)NC(=O)[C@H](CCCNC(=N)N)NC(=O)[C@H](CCCNC(=N)N)NC(=O)[C@H](CCNC(=N)N)NC(=O)[C@H](CCCNC(=N)N)NC(=O)[C@@H](N)CCCNC(=N)N)C(=O)NCC(=O)N[C@@H](CO)C(=O)N[C@@H](CCCCN)C(=O)N[C@@H](CC(=O)O)C(=O)N[C@@H](Cc1c[nH]c2ccccc12)C(=O)N[C@@H](CCCNC(=N)N)C(=O)N[C@@H](CO)C(=O)N[C@@H](Cc1ccc(O)cc1)C(=O)N[C@@H](Cc1ccc(O)cc1)C(=O)N[C@@H](CO)C(=O)O` [1g], the “effect on endogenous α-synuclein in primary cortical cultures” value in series [2] was “able to reduce the amount of endogenous α-synuclein”. For the same compound, the “permeability across artificial BBB membrane, PAMPA” value in series [3] is recorded as “had the ability to penetrate the artificial membrane mimicking the BBB”. The “effect on hippocampal cells containing α-synuclein aggregates” value in series [4] is reported as “effectively reduced the number of hippocampal cells containing α-synuclein; also recorded: visible dependence of the degradation ability on concentration”.

`C[C@@H](O)[C@H](NC(=O)[C@H](Cc1ccccc1)NC(=O)[C@H](Cc1ccc(O)cc1)NC(=O)CN(CCCCN)C(=O)[C@H](CCCNC(=N)N)NC(=O)[C@H](CCCNC(=N)N)NC(=O)[C@H](CCCNC(=N)N)NC(=O)[C@H](CCCNC(=N)N)NC(=O)[C@H](CCCNC(=N)N)NC(=O)[C@H](CCCNC(=N)N)Nc1ccc([N+](=O)[O-])c2nonc12)C(=O)NCC(=O)N[C@@H](CO)C(=O)N[C@@H](CCCCN)C(=O)N[C@@H](CC(=O)O)C(=O)N[C@@H](Cc1c[nH]c2ccccc12)C(=O)N[C@@H](CCCNC(=N)N)C(=O)N[C@@H](CO)C(=O)N[C@@H](Cc1ccc(O)cc1)C(=O)N[C@@H](Cc1ccc(O)cc1)C(=O)N[C@@H](CO)C(=O)O` [1g_NBD] (H-[X2]RRRRR[Nlys]YFTGSKDWRSYYS-OH; C-terminus assumed): in series [1], the “penetration into cells, NBD fluorescence” value is reported as “fluorescence from the attached NBD tag is visible inside HEK293T cells”.
